Legend:
[1] = xn = mol fraction of the nth substance listed; settings: 101 kPa, Liquid, Vibrating tube method
[2] = molar heat capacity at constant pressure; xn = mol fraction of the nth substance listed; settings: 293.15 K, 101 kPa, Liquid, Small sample (50 mg) DSC

CCn1cc[n+](C)c1.O=S(=O)([O-])C(F)(F)F [1-ethyl-3-methylimidazolium trifluoromethanesulfonate] + CCO
mass density [kg/m3], [1]
Settings | x1 = 0.0523 | x1 = 0.1 | x1 = 0.1959 | x1 = 0.2927 | x1 = 0.3819 | x1 = 0.4917 | x1 = 0.5983 | x1 = 0.6899 | x1 = 0.7829 | x1 = 0.8784
293.15 K | 883.9 | 953 | 1059.7 | 1138.5 | 1194.5 | 1248.4 | 1289.4 | 1318.8 | 1343.7 | 1365.6
298.15 K | 879.6 | 948.7 | 1055.4 | 1134.1 | 1190.2 | 1244.1 | 1285.1 | 1314.5 | 1339.4 | 1361.4
303.15 K | 875.3 | 944.4 | 1051.1 | 1129.8 | 1185.9 | 1239.9 | 1280.9 | 1310.3 | 1335.2 | 1357.2
308.15 K | 871 | 940.2 | 1046.8 | 1125.6 | 1181.6 | 1235.6 | 1276.7 | 1306.1 | 1331 | 1353
313.15 K | 866.7 | 935.8 | 1042.5 | 1121.3 | 1177.3 | 1231.4 | 1272.4 | 1301.9 | 1326.8 | 1348.8
318.15 K | 862.2 | 931.4 | 1038.1 | 1116.9 | 1173 | 1227.1 | 1268.2 | 1297.7 | 1322.6 | 1344.7

[2]
Settings | molar heat capacity at constant pressure [J/K/mol]
x1 = 0.0523 | 125.1
x1 = 0.1 | 138.9
x1 = 0.1959 | 164.1

Source: the NIST ThermoML archive (doi:10.1016/j.fluid.2008.09.004)
